Starred links: 1 amine or outer side, 2 acyl side, 3 side chain; linkers in the order of their positions; H or OH if unused. Primed or numbered codes have the meaning given here. No end group written: not given here. *: point of attachment. SO3H = sulfated tyrosine (Y*), O=S(=O)(O)[*:2]; SO3H″ = O=S(=O)(O)*
Legend:
KG-1 cells = test: AML KG-1 model in NOD/SCID mice; format: in vivo; settings: for percentage of KG-1 cells in bone marrow compared to untreated group 2: Doxorubicin 0.1 mg/kg 3 times per week, CONY1-Doxorubicin 75 μg/mouse 3 times per week, Mylotarg 0.2 mg/kg 1 time per week
Protocol: The in vivo mouse model for human AML uses SCID/NOD mice (Jackson Laboratories) inoculated with KG-1 cells derived from a human AML cell line.
In a first experiment, NOD/SCID mice were pretreated with 100 mg/kg CYTOXAN®. Four days post CYTOXAN® injection, KG-1 cells were injected intravenously into the tail vein of six groups of mice. (Table N, Groups 2 and 5-9). One group of mice (Table N, Group 1) was injected with PBS alone (control).
Beginning 19 days post KG-1 injection mice were treated with: CONY1, Doxorubicin, CONY1-Doxorubicin conjugate, or Mylotarg®. (Mylotarg® is a monoclonal antibody (anti CD33) conjugated chemically to calcheamicin recently approved by the FDA for treatment of AML patients age 60 and over in a first relapse.) Mice were treated once or three times per week for three weeks. One group (group 2) of KG-1 inoculated mice were left untreated. (Table N). Two other groups of mice (groups 3 and 4) were injected with KG-1 cells that were previously incubated with CONY1 or 181-scFv (a negative, non-specific control antibody) in serum free RPMI containing 1% BSA at 4° C. for 1 h. The antibodies were used at a concentration of 0.25 mg scFv/l 10^8 cells (75 μg/mouse). Before injection into the mice the preincubated KG-1 cells were washed and resuspended in RPMI. The KG-1 cells in RPMI were inoculated into mice at a concentration of 75 μg scFv/0.2 ml RPMI per mouse. Group 3 mice were inoculated with KG-1+CONY1, and group4 mice were inoculated with KG-1+181-scFv. (Table N). This treatment (group 3 and 4) was carried out one day after the inoculation of groups 1-2 and 5-9, i.e., at five days after CYTOXAN injection.
Mice were sacrificed from 60 to 65 days post cell injection. Bone marrow samples were analyzed by flow cytometry using mouse anti human CD34-FITC (IQP 144F) (or anti CD44-FITC (MCA89F, Serotec)) and Y1-Biotin/SAV-PE. Mouse IgG1-FITC (IQP 191-F) was used as an isotype control, and mouse IgG2a-FITC (MCA929F, Serotec) was used as a negative control. Flow cytometry was performed using FACSCalibur system and CellQwest software, Becton Dickinson.
An additional experiment was performed in which SCID-NOD mice were i.v. injected with 3×10^4 MOLT-4 cells/mouse 5 days post treatment with cyclophosphamide. Anti-cancer agents or PBS were injected IV three times/week, from day 14 onward. On day 60, blood was drawn, then the animals were sacrificed. Bone marrow was extracted and analyzed by FACS analysis using a commercially available antiCD44 antibody for the detection of MOLT-4 cells in the mice bone marrow cell population.

washed platelets = test: Competitive FACS: effect of synthetic GPIbα peptides on Y1 binding to washed platelets; design: species or system human
Protocol: (§1) ELISA assays were developed to evaluate the effect of the GPIb derived synthetic peptides on the binding of Y1 to purified glycocalicin. In addition, FACS analysis using washed platelets was carried out. To evaluate the importance of sulfated tyrosine within the Y1 binding site of GPIb, a competitive binding FACS analysis was used. Y1-scFv at a concentration of 1 μg was preincubated with different peptides at concentrations of 2.5 and 200 μM. After a preincubation for 30 minutes at room temperature the mixture was added to a tube containing ˜10^7 washed platelets and the binding of Y1 to the washed platelets was assessed using polyclonal rabbit anti-scFv-PE. The inhibitory effect of the peptides compared to control binding (Y1 alone) was evaluated by measuring the residual binding of Y1 to washed platelets. The peptides and the results are described in Table 1 and are similar to results that were observed using the same peptides in an ELISA assay (Table B). In both assays, a control level of Y1 binding was determined, as follows. A polystyrene microtiter maxisorb plate was coated with (a) purified glycocalicin or (b) washed platelets. After extensive washing, 0.5 μg/well of Y1 was added. The plate was then incubated with rabbit anti-scFv followed by addition of anti rabbit-HRP (horse radish peroxidase) and HRP substrate. The level of anti rabbit-HRP binding was measured by the intensity of the color produced, and the level of anti rabbit-HRP binding correlates with the level of binding of anti Y1-scFv and the level of binding of Y1. The optical density was measured at A405. Each sample was assayed in duplicate, and the average was calculated.

[1] = tested on: Y1 Binding to Glycocalicin; test: ELISA: effect of synthetic GPIbα peptides on Y1 binding to purified glycocalicin; design: species or system human; settings: 0.25 μg/well Y1
Protocol: as §1, with “After extensive washing, 0.5 μg/well of Y1 was added.” left out
The effect of synthetic GPIbα peptides on Y1 binding to purified glycocalicin was evaluated by mixing varying concentrations of the peptides with a constant amount of Y1. After a preincubation for 30 minutes at room temperature, the mixture was added to a polystyrene microtiter maxisorb plate coated with purified glycocalicin, as described for evaluation of Y1 binding in the absence of peptides. The inhibitory effect of the peptides was evaluated by measuring the residual binding of Y1 to glycocalicin using rabbit anti Y1 scFv and anti rabbit-HRP antibodies, as described for evaluation of Y1 binding in the absence of peptides. This study was performed with four peptides representing various subsets of the sequence 268 to 285 and a control peptide. Each peptide was tested at different concentrations: 200 μM, 25 μM, 2.5 μM, and 0.5 μM.

[2] = tested on: scFv Y1 binding to glycocalicin; test: Competitive binding ELISA of sulfated peptides to Y1; design: species or system human; settings: for Inhibition of Y1 binding to glycocalicin by peptide: peptide preincubated with scFv Y1 at 1, 10 and 100 μM
Protocol: A competitive binding ELISA assay was used to assess the importance of position of sulfated tyrosines to the binding of peptides to Y1.
Glycocalicin was immobilized on a Maxisorb plate. scFv Y1 was preincubated with a peptide of interest for 10 minutes at three different concentrations (1, 10 and 100 μM) in order to observe a dose response. (Table 12). After preincubation, the mixture (Y1+peptide) was added to the plate, and binding of scFv Y1 was assessed using polyclonal rabbit anti-VL, which recognizes the VL chain of scFv Y1, followed by anti-rabbit-HRP. In mixtures in which the peptide bound to scFv Y1, a decrease in the binding of scFv Y1 to glycocalicin compared to control binding was observed.

Chain of scFv Y1 binding to glycocalicin (as listed by the source): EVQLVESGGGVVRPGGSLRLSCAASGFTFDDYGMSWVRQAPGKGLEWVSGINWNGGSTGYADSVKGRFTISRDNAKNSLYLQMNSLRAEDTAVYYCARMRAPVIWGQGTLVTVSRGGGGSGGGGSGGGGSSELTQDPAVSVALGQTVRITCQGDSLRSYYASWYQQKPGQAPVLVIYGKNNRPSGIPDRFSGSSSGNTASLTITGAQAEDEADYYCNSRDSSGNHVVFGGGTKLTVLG
Chain of Y1 Binding to Glycocalicin (as listed by the source): as above

| Compound | Residual Binding of Y1 (% of baseline) (Geo Mean) (washed platelets; peptide 2.5 μM) | Residual Binding of Y1 (% of baseline) (Geo Mean) (washed platelets; peptide 200 μM) | Residual Binding of Y1 (% of baseline) ([1]; peptide 0.5 μM) | Residual Binding of Y1 (% of baseline) ([1]; peptide 2.5 μM) | Residual Binding of Y1 (% of baseline) ([1]; peptide 25 μM) | Inhibition of Y1 binding to glycocalicin by peptide [2] | further results |
| --- | --- | --- | --- | --- | --- | --- | --- |
| COc1cccc2c1C(=O)c1c(O)c3c(c(O)c1C2=O)C[C@@](O)(C(=O)CO)C[C@@H]3O[C@H]1C[C@H](N)[C@H](O)[C@H](C)O1 [Doxorubicin] |  |  |  |  |  |  | reduction in the number of tumor cells in the bone marrow (KG-1 cells; additional experiment, day 60): 50%; mice that died within three weeks after treatment initiation (KG-1 cells; first experiment, group 7, 5 mg/kg, 1 time per week): Nine out of 10; percentage of KG-1 cells in bone marrow compared to untreated group 2 (KG-1 cells; first experiment): statistically significant (p<0.05) lower percentage |
| GDEGDTDLY*DY*Y*P (GDEGDTDLYDYYP; not fully specified (residues 9, 11, 12); printed as GDEGDTDLY*DY*Y*P) [P-3-S, residues 268-280 of GPIbα] | 82 % of baseline | 26 % of baseline | 80 % of baseline | 67 % of baseline | 21 % of baseline |  |  |
| GDEGDTDLY*DY*Y*PEEDTE (GDEGDTDLYDYYPEEDTE; not fully specified (residues 9, 11, 12); printed as GDEGDTDLY*DY*Y*PEEDTE) [P-1-S, residues 268-285 of GPIbα, Y* sulfated tyrosine] | 41 % of baseline | 5 % of baseline | 89 % of baseline | 62 % of baseline | 25 % of baseline | did inhibit the binding | Residual Binding of Y1 (% of baseline) ([1]; peptide 200 μM): 0 % of baseline |
| GDEGDTDLYDYYPEEDTE [P-1, residues 268-285 of GPIbα, non-sulfated] |  | 87 % of baseline | 88 % of baseline | 94 % of baseline | 71 % of baseline |  | Residual Binding of Y1 (% of baseline) ([1]; peptide 200 μM): 61 % of baseline |
| Mylotarg: monoclonal antibody (anti CD33) conjugated chemically to calcheamicin |  |  |  |  |  |  | prevalence of cancer cells in the bone marrow (KG-1 cells; additional experiment, day 60, CONY1 scFv 75 μg/mouse three times/week, Mylotarg 7 μg/mouse once a week): completely inhibited; percentage of KG-1 cells in bone marrow compared to untreated group 2 (KG-1 cells; first experiment): free of KG 1 cells |
| QATEY*EY*LDYDFLPETE (QATEY(SO3H)EY(SO3H)LDYDFLPETE) [P-Y* Y*Y, PSGL-1 n-terminus peptide, sulfated] |  |  |  |  |  | inhibited Y1 binding to glycocalicin |  |
| QATEY*EYLDY*DFLPETE (QATEY(SO3H)EYLDY(SO3H)DFLPETE) [P-Y*Y Y*, PSGL-1 n-terminus peptide, sulfated] |  |  |  |  |  | inhibited Y1 binding to glycocalicin |  |
| QATEY*EYLDYDFLPETE (QATEY(SO3H)EYLDYDFLPETE) [P-Y*YY, PSGL-1 n-terminus peptide, sulfated] |  |  |  |  |  | inhibited Y1 binding to glycocalicin | peptide concentration at which binding is inhibited efficiently ([2]; competitive ELISA, scFv Y1 on glycocalicin): 100 µM |
| QATEYEY*LDY*DFLPETE (QATEYEY(SO3H″)LDY(SO3H″)DFLPETE) [P-YY* Y*, PSGL-1 n-terminus peptide, sulfated] |  |  |  |  |  | best inhibitors |  |
| QATEYEY*LDYDFLPETE (QATEYEY(SO3H)LDYDFLPETE) [P-YY*Y, PSGL-1 n-terminus peptide, sulfated] |  |  |  |  |  | inhibited Y1 binding to glycocalicin |  |
| REEGRQHFFLLEGRSSYS [negative control peptide, reference compound] | 96 % of baseline |  |  | 100 % of baseline | 89 % of baseline |  | Residual Binding of Y1 (% of baseline) ([1]; peptide 200 μM): 85 % of baseline |
| TDLY*DY*Y*PEEDTE (TDLYDYYPEEDTE; not fully specified (residues 4, 6, 7); printed as TDLY*DY*Y*PEEDTE) [P-2-S, residues 273-285 of GPIbα] | 61 % of baseline | 7 % of baseline | 78 % of baseline | 52 % of baseline | 15 % of baseline |  |  |

Source: patent US20040001822A1, “Y1-isolated molecules comprising epitopes containing sulfated moieties, antibodies to such epitopes, and uses thereof” (priority 2000, published 2004)
